Source: publication PMC9940851, “Seleno Containing Compounds as Potent and Selective Antifungal Agents” (ACS Infectious Diseases, 2022)
Converted amounts (≈) assume the structure as drawn.

Columns and labels:
[1] = molecular target: T1, MgCA (Malassezia globosa, UniProt A8Q1N3); test: stopped-flow CO2 hydrase assay; assay type: biochemical
T1 construct: gene MGL_1814
T1 sequence (A8Q1N3 1-241): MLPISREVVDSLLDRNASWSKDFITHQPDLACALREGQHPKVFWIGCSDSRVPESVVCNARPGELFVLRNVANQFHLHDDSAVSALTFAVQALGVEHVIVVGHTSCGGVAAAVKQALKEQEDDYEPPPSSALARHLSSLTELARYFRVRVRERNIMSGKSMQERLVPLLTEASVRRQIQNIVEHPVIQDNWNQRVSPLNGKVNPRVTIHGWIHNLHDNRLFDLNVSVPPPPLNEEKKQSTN
Method in brief: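 Recombinant carbonic anhydrase (5–12 nM) was preincubated with inhibitor for 15 min at room temperature. CO2 hydration (1.7–17 mM CO2) was then followed by stopped-flow using 0.2 mM phenol red at 557 nm in 20 mM Hepes pH 7.4 with 20 mM Na2SO4, over 10–100 s. Initial rates came from at least six traces, minus uncatalysed rates, and at least three determinations were averaged. Ki was obtained by nonlinear least-squares fitting with the Cheng-Prusoff equation.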

[2] = molecular target: T2, MpaCA (Malassezia pachydermatis, UniProt A0A0M8MPA4); test: stopped-flow CO2 hydrase assay; assay type: biochemical
T2 construct: gene Malapachy_3798
T2 sequence (A0A0M8MPA4 1-242): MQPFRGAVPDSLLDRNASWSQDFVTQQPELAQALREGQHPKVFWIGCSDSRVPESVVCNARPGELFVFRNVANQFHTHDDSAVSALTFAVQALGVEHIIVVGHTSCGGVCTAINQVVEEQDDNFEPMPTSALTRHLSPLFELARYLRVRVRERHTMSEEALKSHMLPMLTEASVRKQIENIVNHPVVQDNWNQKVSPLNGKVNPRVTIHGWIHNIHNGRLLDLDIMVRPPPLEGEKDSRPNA

[3] = test system: T3, ATCC M. furfur 14521; test: microbe, parasite or virus in culture; details: Malassezia furfur
T3 construct: ATCC 14521
Method: (§1) Inoculum preparations for antifungal assays were performed following the CLSI guidelines for antifungal susceptibility testing of yeasts.[31] Antifungal activity was evaluated on unicellular yeasts Candida albicans ATCC 10231, Candida glabrata ATCC 90030 (DSMZ 11226), Malassezia pachydermatis CDC 16334 (DSMZ 6172), Malassezia globosa ATCC MYA 4612, and Malassezia furfur ATCC 14521. All the fungal strains were stored at −80 °C in cryovials. Then Candida spp. and Malassezia pachydermatis were reactivated in RPMI 1640 broth for 24–48 h at 35 °C. The so obtained fresh cultures were streaked onto Sabouraud dextrose agar and incubated for 24–48 h at 35 °C. Malassezia globosa and furfur were reactivated in modified RPMI 1640 broth[32] for 24–48 h at 35 °C (M. furfur) and 33 °C (M. globosa), and then the cultures were streaked onto Leeming and Notman agar (MLNA) and incubated for 48–72 h at 35 °C for M. furfur and at 33 °C for M. globosa. The fungal inoculum for the testing was prepared by suspending in phosphate buffer (PB) 10 mM pH 7 4–5 colonies of about 1 mm diameter. The fungal suspension was then adjusted to a final optical density of 0.5 McFarland standard (1–5 × 10^6 cells/mL). The compound solutions were tested in a range of concentrations from 0.01 μg/mL to 256 μg/mL, and 50 μL were then added in 96 wells microtiter plates with 50 μL of fungal inoculum and incubated for 24–48 h at 35 °C. Growth and sterility controls were performed. […] Compounds 3a, 3c, 5b, 7a–d, 9c, 11e, 11i, and 14a,b were selected as representatives of the chemical moieties synthesized prior to their screen on yeasts of biomedical relevance such as M. pachydermatis DSMZ 6172, C. albicans ATCC 10231, and C. glabrata ATCC 90030 (DSMZ 11226) strains. The clinical used drugs Ketoconazole, SeS2, and Amphotericin B were included as references (Table 1).

[4] = test system: T4, M. globosa ATCC MYA 4612; test: microbe, parasite or virus in culture; details: Malassezia globosa
T4 construct: ATCC MYA 4612
Method: as §1

[5] = test system: T5, M. pachydermatis DSMZ 6172; test: microbe, parasite or virus in culture; design: broth microdilution MIC, M. pachydermatis and Candida, 35 °C; details: Malassezia pachydermatis, DSMZ6172
T5 construct: DSMZ 6172 (CDC 16334)
Method: as §1

SMILES | Ki [1] [µM] | Ki [2] [µM] | MIC [3] [µg/mL] | MIC [4] [µg/mL] | MIC [5] [µg/mL]
NS(=O)(=O)c1ccc(NC(=[Se])Nc2ccc(F)cc2)cc1 [3b] | 0.648 | 0.965 |  |  | 
NS(=O)(=O)c1ccc(NC(=[Se])Nc2cccc(C(F)(F)F)c2)cc1 [3d] | 0.803 | 0.617 | 213 ± 73.9 (≈ 505 µM) | > 256 | 6 ± 3.46 (≈ 14.2 µM)
NS(=O)(=O)c1ccc(NC(=[Se])Nc2ccccc2Cl)cc1 [3e] | 0.655 | 0.693 | 5.3 ± 2.31 (≈ 13.6 µM) | 256 (≈ 659 µM) | 1 ± 0.87 (≈ 2.57 µM)
NS(=O)(=O)c1cccc(NC(=[Se])Nc2ccccc2)c1 [4a] | 0.783 | 0.283 | 107 ± 37 (≈ 301 µM) | 256 (≈ 723 µM) | 4 (≈ 11.3 µM)
NS(=O)(=O)c1cccc(NC(=[Se])Nc2ccc(F)cc2)c1 [4b] | 0.7 | 0.342 |  |  | 
NS(=O)(=O)c1ccc(CCNC(=[Se])Nc2ccccc2)cc1 [5a] | 0.655 | 0.793 |  |  | 
NS(=O)(=O)c1ccc(CCNC(=[Se])Nc2cccc(C(F)(F)F)c2)cc1 [5c] | 0.701 | 0.992 |  |  | 
NS(=O)(=O)c1ccc(CCNC(=[Se])Nc2ccc(Br)cc2)cc1 [5d] | 0.683 | 0.369 |  |  | 
NS(=O)(=O)c1ccc(CCNC(=[Se])Nc2ccccc2Cl)cc1 [5e] | 0.812 | 0.518 | 2.3 ± 1.53 (≈ 5.52 µM) | 256 (≈ 614 µM) | 0.5 (≈ 1.2 µM)
COc1ccccc1NC(=[Se])NCCc1ccc(S(N)(=O)=O)cc1 [5f] | 0.411 | 0.525 | 1.3 ± 0.58 (≈ 3.15 µM) | 256 (≈ 621 µM) | 0.5 (≈ 1.21 µM)
NS(=O)(=O)c1ccc(CCNC(=[Se])Nc2ccc(I)cc2)cc1 [5g] | 0.689 | 0.531 | 1.7 ± 0.58 (≈ 3.34 µM) | 85.3 ± 37 (≈ 168 µM) | 1 (≈ 1.97 µM)
NS(=O)(=O)c1ccc(CCNC(=[Se])Nc2ccc3ccccc3c2)cc1 [5h] | 0.561 | 0.26 | 1.7 ± 0.58 (≈ 3.93 µM) | 64 (≈ 148 µM) | 0.5 (≈ 1.16 µM)
CCCCCCCc1ccc(C(=O)NC(=[Se])Nc2ccc(S(N)(=O)=O)cc2)cc1 [7e] | 5.88 | 78.2 | 10.7 ± 4.62 (≈ 22.3 µM) | > 256 | 0.5 (≈ 1.04 µM)
NS(=O)(=O)c1ccc(NC(=[Se])NC(=O)c2ccc([N+](=O)[O-])cc2)cc1 [7f, 4-Nitro-N-((4-sulfamoylphenyl)carbamoselenoyl)benzamide] | 9.01 | 85.4 | 42.7 ± 18.5 (≈ 99.9 µM) | 64 (≈ 150 µM) | 2.2 ± 1.75 (≈ 5.15 µM)
NS(=O)(=O)c1ccc(NC(=[Se])NC(=O)c2ccc(I)cc2)cc1 [7g, 4-Iodo-N-((4-sulfamoylphenyl)carbamoselenoyl)benzamide] | 3.11 | 76.1 | 6 ± 3.46 (≈ 11.8 µM) | 256 (≈ 504 µM) | 0.5 (≈ 0.984 µM)
NS(=O)(=O)c1ccc(NC(=[Se])NC(=O)c2ccc(Br)cc2F)cc1 [7h, 4-Bromo-2-fluoro-N-((4-sulfamoylphenyl)carbamoselenoyl)benzamide] | 0.764 | 68.5 | 3.3 ± 1.15 (≈ 6.89 µM) | 64 (≈ 134 µM) | 0.5 (≈ 1.04 µM)

SMILES | Ki [1] [µM] | Ki [2] [µM] | MIC [3] [µg/mL] | MIC [4] [µg/mL] | MIC [5] [µg/mL]
NS(=O)(=O)c1ccc(NC(=[Se])NC(=O)c2ccc(CCl)cc2)cc1 [7i, 4-(Chloromethyl)-N-((4-sulfamoylphenyl)carbamoselenoyl)benzamide] | 0.877 | 67.7 | 16 (≈ 37.1 µM) |  | 6.7 ± 2.31 (≈ 15.6 µM)
NS(=O)(=O)c1ccc(NC(=[Se])NC(=O)c2ccc(/N=N/c3ccccc3)cc2)cc1 [7j, (E)-4-(Phenyldiazenyl)-N-((4-sulfamoylphenyl)carbamoselenoyl)benzamide] | 2.86 | 37 | 21.3 ± 9.24 (≈ 43.8 µM) | 24 ± 13.9 (≈ 49.3 µM) | 2 (≈ 4.11 µM)
NS(=O)(=O)c1ccc(NC(=[Se])NC(=O)c2ccc(F)cc2)cc1 [7k, 4-Fluoro-N-((4-sulfamoylphenyl)carbamoselenoyl)benzamide] | 8.29 | 80.8 | 5.3 ± 2.31 (≈ 13.2 µM) | 256 (≈ 640 µM) | 0.5 (≈ 1.25 µM)
NS(=O)(=O)c1cccc(NC(=[Se])NC(=O)c2ccccc2)c1 [8a] | 4.14 | 33.7 | 21.3 ± 9.24 (≈ 55.7 µM) | 128 (≈ 335 µM) | 2 (≈ 5.23 µM)
CCCCCCCc1ccc(C(=O)NC(=[Se])Nc2cccc(S(N)(=O)=O)c2)cc1 [8b, 4-Heptyl-N-((3-sulfamoylphenyl)carbamoselenoyl)benzamide] | 2.19 | 49.3 | 6.7 ± 2.31 (≈ 13.9 µM) | 213 ± 73.9 (≈ 444 µM) | 0.8 ± 0.29 (≈ 1.66 µM)
NS(=O)(=O)c1cccc(NC(=[Se])NC(=O)c2cc(Br)cc(OC(F)(F)F)c2)c1 [8c, 3-Bromo-N-((3-sulfamoylphenyl)carbamoselenoyl)-5-(trifluoromethoxy)benzamide] | 7.65 | 86.1 | 9.3 ± 6.11 (≈ 17.1 µM) | 256 (≈ 470 µM) | 2 (≈ 3.67 µM)
NS(=O)(=O)c1cccc(NC(=[Se])NC(=O)c2ccc(F)cc2)c1 [8d, 4-Fluoro-N-((3-sulfamoylphenyl)carbamoselenoyl)benzamide] | 7.3 | 79.5 | 256 (≈ 640 µM) | 256 (≈ 640 µM) | 2 (≈ 5 µM)
NS(=O)(=O)c1cccc(NC(=[Se])NC(=O)c2ccc(I)cc2)c1 [8e, 4-Iodo-N-((3-sulfamoylphenyl)carbamoselenoyl)benzamide] | 8.74 | 77.6 | 6.7 ± 2.31 (≈ 13.2 µM) | > 256 | 8 (≈ 15.7 µM)
NS(=O)(=O)c1cccc(NC(=[Se])NC(=O)c2ccc(Cl)cc2)c1 [8f, 4-Chloro-N-((3-sulfamoylphenyl)carbamoselenoyl)benzamide] | 2.08 | 74.7 | 64 (≈ 154 µM) | 128 (≈ 307 µM) | 16 (≈ 38.4 µM)
NS(=O)(=O)c1cccc(NC(=[Se])NC(=O)c2ccc(Br)cc2F)c1 [8g, 4-Bromo-2-fluoro-N-((3-sulfamoylphenyl)carbamoselenoyl)benzamide] | 3.48 | 65.7 | 8 (≈ 16.7 µM) | 128 (≈ 267 µM) | 13.3 ± 4.6 (≈ 27.8 µM)
NS(=O)(=O)c1ccc(CCNC(=[Se])NC(=O)c2ccccc2)cc1 [9a] | 0.565 | 73.9 | 4 (≈ 9.75 µM) | 32 (≈ 78 µM) | 1 (≈ 2.44 µM)
CCCCCCCc1ccc(C(=O)NC(=[Se])NCCc2ccc(S(N)(=O)=O)cc2)cc1 [9b, 4-Heptyl-N-((4-sulfamoylphenethyl)carbamoselenoyl)benzamide] | 6.39 | > 10 | 1.7 ± 0.58 (≈ 3.34 µM) | 256 (≈ 503 µM) | 1.7 ± 0.58 (≈ 3.34 µM)
NS(=O)(=O)c1ccc(CCNC(=[Se])NC(=O)c2ccc(F)cc2)cc1 [9d, 4-Fluoro-N-((4-sulfamoylphenethyl)carbamoselenoyl)benzamide] | 8 | 75 | 2.3 ± 2.31 (≈ 5.37 µM) | 128 (≈ 299 µM) | 1 (≈ 2.33 µM)
NS(=O)(=O)c1ccc(CCNC(=[Se])NC(=O)c2ccc(I)cc2)cc1 [9e, 4-Iodo-N-((4-sulfamoylphenethyl)carbamoselenoyl)benzamide] | 1.57 | 83.3 | 3.3 ± 1.15 (≈ 6.15 µM) | 32 (≈ 59.7 µM) | 1 (≈ 1.86 µM)
NS(=O)(=O)c1ccc(CCNC(=[Se])NC(=O)c2ccc(/N=N/c3ccccc3)cc2)cc1 [9f, (E)-4-(Phenyldiazenyl)-N-((4-sulfamoylphenethyl)carbamoselenoyl)benzamide] | 2.39 | 88.8 | 2.7 ± 1.15 (≈ 5.25 µM) | 8 (≈ 15.6 µM) | 3.33 ± 1.15 (≈ 6.47 µM)
